Measured values taken from ChEMBL document CHEMBL4627294, “Synthesis and efficacy of pyrvinium-inspired analogs against tuberculosis and malaria pathogens” (Bioorg Med Chem Lett, 2020).
≈ marks a conversion by molar mass, not a printed value. Calls of active or inactive are those of the source. The calls are words filed in the database; no cut-off is given here.

Tests used:
Plasmodium falciparum [1] = assay: Antimalarial activity against erythrocytic stage of Plasmodium falciparum 3D7 incubated for 50 hrs; format: functional, organism-based; details: 3D7, 50 h
CHO-K1 = assay: Cytotoxicity against CHOK1 cells; format: cell-based; details: Cricetulus griseus
[2] = Cytotoxicity against human HEK cells; format: cell-based; details: HEK293
NRK-49F = assay: Cytotoxicity against rat NRK-49F cells; format: cell-based
[3] = Selectivity index, ratio of IC50 for CHOK1 cells to IC50 for Plasmodium falciparum 3D7; format: toxicity; details: hamster, CHO-K1 cells; read-out: Ratio IC50
[4] = system: Mycobacterium tuberculosis; assay: Antimycobacterial activity against Mycobacterium tuberculosis H37Rv assessed as inhibition of bacterial growth by MABA assay; format: functional
[5] = Selectivity index, ratio of IC50 for CHOK1 cells to MIC for Mycobacterium tuberculosis H37Rv; format: toxicity; details: hamster, CHO-K1 cells
Plasmodium falciparum [6] = assay: Antimalarial activity against drug-resistant Plasmodium falciparum Dd2; format: functional, organism-based
Plasmodium falciparum [7] = assay: Antimalarial activity against early ring stage of Plasmodium falciparum 3D7 assessed as parasite growth arrest at early trophozite stage at 3 times of IC50 incubated for 48 hrs by giemsa staining based light microscopy; format: functional, organism-based
Plasmodium falciparum [8] = assay: Parasiticidal activity against early ring stage of Plasmodium falciparum 3D7 assessed as reduction in parasite growth incubated for 48 hrs followed by compound washed off and measured after 48 hrs incubation in normal medium; format: functional, organism-based
Plasmodium falciparum [9] = assay: Antimalarial activity against Plasmodium falciparum 3D7 assessed as inhibition of parasite growth incubated for 96 hrs; format: functional, organism-based; details: 3D7, 96 h

Row | SMILES | IC50 (Plasmodium falciparum [1]) [µM] | IC50 (CHO-K1) [µM] | IC50 [2] [µM] | IC50 (NRK-49F) [µM] | selectivity ratio [3] | MIC [4] [µM] | selectivity ratio [5] | IC50 (Plasmodium falciparum [6]) [µM] | Activity (Plasmodium falciparum [7]) | Activity (Plasmodium falciparum [8]) | IC50 (Plasmodium falciparum [9]) [µM]
1 | CN(C)c1ccc2c(ccc(/C=C/c3ccc[nH]3)[n+]2C)c1 | 1.54 | 77.8 | 66.9 | 76 | 50.5 | 25 | 3.11 |  |  |  | 
2 | CCc1nc(N)nc(N)c1-c1ccc(Cl)cc1 [PYRIMETHAMINE] | 0.011 |  |  |  |  |  |  |  |  |  | 
3 | CN(C)c1ccc2c(ccc(/C=C/c3cccc(C#N)c3)[n+]2C)c1 | 0.217 | 87.6 | 56 | 59.5 | 404 | 25 | 3.5 |  |  |  | 
4 | CN(C)c1ccc2c(ccc(/C=C/c3ccccc3[N+](=O)[O-])[n+]2C)c1 | 3.6 | 73.9 | 66.7 | 69.5 | 20.5 | 50 | 1.47 |  |  |  | 
5 | CN(C)c1ccc2c(ccc(/C=C/c3c[nH]c4ccccc34)[n+]2C)c1 | 0.06 | 11.4 | 10.6 | 11.3 | 188 | 3.12 | 3.64 | 0.097 |  |  | 
6 | C[C@@H]1CC[C@H]2[C@@H](C)C(=O)O[C@@H]3O[C@@]4(C)CC[C@@H]1[C@]32OO4 [ARTEMISININ] | 0.025 |  |  |  |  |  |  | 0.021 |  |  | 
7 | Cc1cc(/C=C/c2ccc3cc(N(C)C)ccc3[n+]2C)c(C)n1-c1ccccc1 | 0.774 | 10.9 | 16 | 20.2 | 14 | 6.25 | 1.73 |  |  |  | 
8 | CN(C)c1ccc2c(ccc(/C=C/c3ccc(Cl)c(Cl)c3)[n+]2C)c1 | 0.087 | 12.4 | 8.56 | 11.3 | 142 | 3.12 | 3.98 |  |  |  | 
9 | CO[C@H]1/C=C/O[C@@]2(C)Oc3c(C)c(O)c4c(O)c(c(/C=N/N5CCN(C)CC5)c(O)c4c3C2=O)NC(=O)/C(C)=C\C=C\[C@H](C)[C@H](O)[C@@H](C)[C@@H](O)[C@@H](C)[C@H](OC(C)=O)[C@@H]1C [RIFAMPIN] |  |  |  |  |  | 0.24 (≈ 0.198 µg/mL) |  |  |  |  | 
10 | CN(C)c1ccc2c(ccc(/C=C/c3ccccc3)[n+]2C)c1 | 0.089 | 41.6 | 39.8 | 42.1 | 467 | > 100 | < 0.41 |  |  |  | 
11 | CN(C)c1ccc2c(ccc(/C=C/c3ccc(C#N)cc3)[n+]2C)c1 | 0.094 | 52.6 | 62.1 | 50.2 | 553 | 50 | 1.05 |  |  |  | 
12 | CN(C)c1ccc2c(ccc(/C=C/c3cc(Cl)cc(Cl)c3O)[n+]2C)c1 | 2.47 | 54.7 | 50.1 | 49.1 | 22.1 | 25 | 2.18 |  |  |  | 
13 | Cc1cc(/C=C/c2ccc3cc(N(C)C)ccc3[n+]2C)c(C)n1-c1ccccn1 | 0.228 | 15.2 | 14.6 | 12.7 | 66.2 | 6.25 | 2.42 |  |  |  | 
14 | CN(C)c1ccc2c(ccc(/C=C/c3c(Cl)cccc3Cl)[n+]2C)c1 | 0.023 | 7.92 | 5.62 | 5.23 | 344 | 3.12 | 2.53 | 0.053 | Active | Active | 0.00237
15 | CN(C)c1ccc2c(ccc(/C=C/c3cc(Cl)ccc3O)[n+]2C)c1 | 0.441 | 30.3 | 15.3 | 12 | 68.7 | 3.12 | 9.72 |  |  |  | 
